In US7794723B2, “Antigenic peptides derived from telomerase” (GemVax AS, priority 1998, dated 2010):
Where no end group is shown, it is not given here.

Columns and labels:
[1] = system: tumor infiltrating lymphocytes (TILs) obtained from a patient with advanced pancreatic cancer; assay: Reactivity of tumor infiltrating lymphocytes (TILs), standard proliferation assay; type: cell-based, human; conditions: CD3+, CD4+, CD8− T cell line
Description: FIGS. 3 and 4 (FIG. 3 and FIG. 4) show the reactivity of tumor infiltrating lymphocytes (TILs) obtained from a patient with advanced pancreatic cancer. The T cells were obtained from a tumor biopsy and were successfully propagated in vitro to establish a T cell line. The T cell line was CD3+, CD4+ and CD8−, and proliferated specifically in response to the telomerase peptides. The results in FIG. 3 show T cells that recognize the peptides with SEQ ID NOs: 2 and 3 when compared to controls with medium alone. The results in FIG. 4 show T cells that recognize the peptide with SEQ ID NO:2. The TILs were expanded by co-culturing with recombinant human interleukin 2 (rIL-2) and tested after 14 days in standard proliferation assay using peptides with SEQ ID NOs: 2, 3, 4 and 7.

[2] = system: peripheral blood T cells from a patient with colon cancer; assay: In vitro stimulation of peripheral blood T cells from a cancer patient, T cell proliferative assay (3H-thymidine); type: cell-based, human; conditions: FIG. 2; peptide 30 μg/ml; 10^5 mononuclear cells; cultures without peptide as control
Description: In vitro culture was performed as follows: Triplicates of 105 mononuclear cells were incubated for […] in X-VIVO 10 medium supplemented with 15% pooled heat inactivated human serum in a humidified incubator in 5% CO2. Peptides were present throughout culture at a final concentration of 30 μg/ml in the medium. Cultures without peptide served as control. […] Furthermore, one component of the telomerase specific response in this patient is directed against the peptide with SEQ ID NO:4 described here. […] The figure depicts the results of conventional T cell proliferative assays, where peripheral blood mononuclear cells (10^5) were cultured with peptides as indicated for 7 days in triplicates before harvesting. To measure the proliferative capacity of the cultures, 3H-thymidine (3.7×10^4 Bq/well) was added to the culture overnight before harvesting. Values are given as mean counts per minute (cpm) of the triplicates.

[3] = system: hTERT expressing target cells (Jurkat) transfected with HLA-A2 (A2/K^b); conditions: FIG. 1; T cells from mice primed with the peptide; target cells pulsed with control peptide (influenza 58-66); different effector to target ratios; 4 hours
[4] = FIG. 3, compared to controls with medium alone

DGLRPIVNMDYVVGAR [SEQ ID NO:3]
recognition of peptide by TIL T cells (proliferation) [1, 4]: recognize

EARPALLTSRLRFIPK [SEQ ID NO:2]
recognition of peptide by TIL T cells (proliferation) [1, 4]: recognize | recognition of peptide by TIL T cells (proliferation) ([1]; FIG. 4): recognize

GVPEYGCVVNLRKVVNF (GVPEYGCVVNLRKTVVNF) [SEQ ID NO:4]
proliferative response of T cells (3H-thymidine, mean cpm) [2]: proliferative response above background values

ILAKFLHWL [SEQ ID NO:9]
specific cytotoxicity (killing of HLA-A2 transfected Jurkat cells) [3]: Specific cytotoxicity above background was observed at all effector to target ratios
